In test [1] the test system is Non-small lung cancer ABC-1 cells. Put plainly: Cellular proliferation assay (CellTiter-Glo). The format is cell-based. To be noted: Homo sapiens, 72 h; ABC-1 cells, 3 days of compound treatment; read-out: ABC-1 IC50.
Description: Cellular Proliferation Assay to Determine Compound Inhibition of Cancer Cell Growth
Viable cells were measured after 3 days of compound treatment using the CellTiter-Glo assay (Promega, G7570). Assay was performed following the manufacture protocol.
Test [2] concerns Wnt ligand-induced signaling in HEK293 cells. Put plainly: Wnt-responsive Super-TOpFlash (STF) luciferase reporter gene assay. The format is cell-based. To be noted: Homo sapiens, Wnt3A condition medium. In a few lines:
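HEK293 cells (8000/well, 5% FBS medium) treated with 20% mouse L-cell Wnt3A conditioned medium plus compounds in 10-point serial dilution; luciferase read next day. Inhibition calculated relative to Wnt3A-induced signal without compound and background without Wnt3A CM or compound.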
In general terms: In a reporter assay the amount or activity of a reporter protein is the signal.

A further test concerns the target PARP2 (Mus musculus (Mouse), UniProt O88554). The test can be described thus: PARP2 autoparsylation assay (LC/MS detection of nicotinamide). The following applies: 20 nM enzyme, 250 μM β-NAD+, 60 min. The format is biochemical. The procedure:
(§1) The autoparsylation activity of the TNKS 1/2 or PARP1/2 enzymes was measured by the liquid chromatography-mass spectrometry (LC/MS) detection of nicotinamide as readout. Compound activity in inhibiting the TNKS and PARP autoparsylation was evaluated by IC50 measurements.

Test [3] addresses tankyrase 2 protein PARP domain, TNKS2P (Homo sapiens (Human), UniProt Q9H2K2). The test can be described thus: TNKS2 autoparsylation assay (LC/MS detection of nicotinamide). To be noted: read-out: TNKS2 AP IC50, 20 nM enzyme, 250 μM β-NAD+, 60 min.
Description: (§2) Biochemical Assay to Determine Compound Inhibition of TNKS Enzyme Activity
(§3) The autoparsylation activity of the TNKS 1/2 or PARP1/2 enzymes was measured by the liquid chromatography-mass spectrometry (LC/MS) detection of nicotinamide as readout. Compound activity in inhibiting the TNKS and PARP autoparsylation was evaluated by IC50 measurements. […] For the background control wells, 10 μL of the 5× quenching solution per well was added prior to the addition of β-NAD^+. The % Inhibition was calculated as: (Control−Sample)/(Control−Background)*100.
A further test deals with Human PARP1 (Homo sapiens (Human), UniProt P09874). The test can be described thus: PARP1 autoparsylation assay (LC/MS detection of nicotinamide). The format is biochemical. To be noted: 20 nM enzyme, 250 μM β-NAD+, 60 min. The procedure:
as §1

Test [4] deals with human tankyrase 1 PARP catalytic domain, TNKS1P (Homo sapiens (Human), UniProt O95271). Put plainly: TNKS1 autoparsylation assay (LC/MS detection of nicotinamide). To be noted: read-out: TNKS1 AP IC50, 20 nM enzyme, 250 μM β-NAD+, 60 min.
Description: as §2, §3
Test [5] concerns Axin2 protein in SW480 cells. Put plainly: Cellular ELISA assay of Axin2 protein stabilization. To be noted: Homo sapiens, 24 hrs, read-out: Axin AC50. The format is cell-based. In a few lines: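 SW480 colorectal cells seeded overnight, treated with compound, then lysed. Axin2 in lysates measured by sandwich ELISA: anti-Axin2 capture antibody coated at 1 μg/ml (pH 9.2), lysate 2 h at room temperature, biotinylated anti-Axin2 detection 2 h, then streptavidin-HRP 30 min.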
(In general: ELISA stands for enzyme-linked immunosorbent assay.)

Sequence of tankyrase 2 protein PARP domain, TNKS2P (Q9H2K2 959-1164): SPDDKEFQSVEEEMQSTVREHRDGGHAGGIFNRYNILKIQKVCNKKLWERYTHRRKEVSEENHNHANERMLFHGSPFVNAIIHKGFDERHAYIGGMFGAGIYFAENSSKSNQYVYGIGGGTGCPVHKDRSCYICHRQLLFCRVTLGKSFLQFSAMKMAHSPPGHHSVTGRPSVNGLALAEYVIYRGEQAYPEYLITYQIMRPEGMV
Sequence of Human PARP1 (P09874 whole entry): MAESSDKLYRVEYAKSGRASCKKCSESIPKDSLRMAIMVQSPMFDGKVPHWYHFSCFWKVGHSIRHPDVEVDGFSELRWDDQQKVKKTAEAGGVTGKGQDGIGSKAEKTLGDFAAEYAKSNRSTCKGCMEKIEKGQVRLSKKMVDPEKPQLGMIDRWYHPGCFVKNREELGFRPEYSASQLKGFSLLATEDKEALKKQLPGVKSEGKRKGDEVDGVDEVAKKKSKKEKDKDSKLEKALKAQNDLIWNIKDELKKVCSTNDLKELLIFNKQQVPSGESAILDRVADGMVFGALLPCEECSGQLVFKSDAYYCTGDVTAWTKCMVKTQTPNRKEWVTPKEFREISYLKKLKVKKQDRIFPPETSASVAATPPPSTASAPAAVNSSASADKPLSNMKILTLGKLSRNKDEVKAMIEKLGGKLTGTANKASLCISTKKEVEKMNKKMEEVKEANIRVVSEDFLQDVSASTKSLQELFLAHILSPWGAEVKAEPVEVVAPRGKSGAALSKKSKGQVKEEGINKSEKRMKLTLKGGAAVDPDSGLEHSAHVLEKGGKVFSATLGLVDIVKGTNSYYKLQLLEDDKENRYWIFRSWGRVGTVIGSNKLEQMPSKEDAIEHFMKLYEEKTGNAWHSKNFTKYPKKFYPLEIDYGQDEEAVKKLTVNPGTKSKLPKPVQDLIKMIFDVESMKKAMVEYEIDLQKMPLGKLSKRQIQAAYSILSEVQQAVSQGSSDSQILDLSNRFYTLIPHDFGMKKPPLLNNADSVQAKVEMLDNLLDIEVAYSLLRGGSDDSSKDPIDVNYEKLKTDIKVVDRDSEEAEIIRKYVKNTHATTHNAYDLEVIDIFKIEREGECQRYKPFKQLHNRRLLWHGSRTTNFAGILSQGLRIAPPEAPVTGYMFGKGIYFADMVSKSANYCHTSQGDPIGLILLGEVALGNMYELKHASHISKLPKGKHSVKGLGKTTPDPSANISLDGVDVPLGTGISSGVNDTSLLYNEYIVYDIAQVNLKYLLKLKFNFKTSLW
Sequence of PARP2 (O88554 whole entry): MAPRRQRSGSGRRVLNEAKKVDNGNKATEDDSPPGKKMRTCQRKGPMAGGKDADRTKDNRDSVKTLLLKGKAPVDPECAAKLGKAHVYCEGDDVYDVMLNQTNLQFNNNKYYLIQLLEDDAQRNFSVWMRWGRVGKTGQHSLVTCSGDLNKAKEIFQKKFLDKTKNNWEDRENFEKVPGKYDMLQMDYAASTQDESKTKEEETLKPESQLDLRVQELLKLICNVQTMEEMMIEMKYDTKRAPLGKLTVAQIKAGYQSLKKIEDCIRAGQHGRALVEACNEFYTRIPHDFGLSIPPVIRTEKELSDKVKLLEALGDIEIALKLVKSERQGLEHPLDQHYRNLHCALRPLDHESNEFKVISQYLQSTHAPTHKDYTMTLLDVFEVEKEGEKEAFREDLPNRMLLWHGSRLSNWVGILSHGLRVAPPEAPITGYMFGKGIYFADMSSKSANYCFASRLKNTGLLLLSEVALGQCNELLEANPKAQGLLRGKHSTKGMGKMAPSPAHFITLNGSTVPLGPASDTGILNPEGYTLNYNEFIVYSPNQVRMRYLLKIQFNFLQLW
Sequence of human tankyrase 1 PARP catalytic domain, TNKS1P (O95271 1112-1317): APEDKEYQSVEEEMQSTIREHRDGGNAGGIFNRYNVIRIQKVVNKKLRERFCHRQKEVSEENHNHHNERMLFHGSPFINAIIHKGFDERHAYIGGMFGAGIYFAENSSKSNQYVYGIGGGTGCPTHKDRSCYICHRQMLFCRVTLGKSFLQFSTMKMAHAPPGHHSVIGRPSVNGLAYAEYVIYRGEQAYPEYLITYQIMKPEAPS

Consider `O=C(c1ccc(F)cc1)C1CCN(CC(=O)N(Cc2nc3c(c(=O)[nH]2)COCC3)Cc2ccccc2F)CC1` [Example 39, 2-(4-(4-Fluorobenzoyl)piperidin-1-yl)-N-(2-fluorobenzyl)-N-((4-oxo-4,5,7,8-tetrahydro-3H-pyrano[4,3-d]pyrimidin-2-yl)methyl)acetamide], for which the IC50 – broadly, the concentration needed to halve the response being measured – in test [1] was 230 ± 99 nM; in test [2], 17 ± 3 nM; against PARP2 it was > 19000 nM; in test [3], 9 ± 1 nM; against Human PARP1 it was > 19000 nM; in test [4], 43 ± 1 nM. In addition, in test [5], the AC50 (in general, the concentration giving half of the maximal activity seen) was 112 ± 18 nM.

For `O=C(c1ccc(F)cc1)C1CCN(CC(=O)N(Cc2nc3c(c(=O)[nH]2)COCC3)Cc2ccc(F)cc2F)CC1` [Example 40, N-(2,4-Difluorobenzyl)-2-(4-(4-fluorobenzoyl)piperidin-1-yl)-N-((4-oxo-4,5,7,8-tetrahydro-3H-pyrano[4,3-d]pyrimidin-2-yl)methyl)acetamide], the 50% inhibitory concentration (IC50) in test [1] was 520 ± 14 nM; in test [2], 28 ± 4 nM; against PARP2, > 19000 nM; in test [3], 14 ± 1 nM; against Human PARP1 it was > 19000 nM; in test [4] it was 77 ± 5 nM. For the same compound, in test [5], the AC50 came to 431 ± 40 nM.

In the case of `C[C@H](C1CC1)N(Cc1nc2c(c(=O)[nH]1)COCC2)C(=O)CN1CCC(C(=O)c2ccc(F)cc2)CC1` [Example 41, (R)—N-(1-Cyclopropylethyl)-2-(4-(4-fluorobenzoyl)piperidin-1-yl)-N-((4-oxo-4,5,7,8-tetrahydro-3H-pyrano[4,3-d]pyrimidin-2-yl)methyl)acetamide], the IC50 in test [1] is 476 nM; in test [2] it was 32 ± 1.4 nM; on PARP2, > 19000 nM; in test [3], 32 ± 1 nM; against Human PARP1, > 19000 nM; in test [4] it was 16 ± 1 nM. The AC50 in test [5] worked out at 720 ± 150 nM.

Regarding `C[C@@H](C1CC1)N(Cc1nc2c(c(=O)[nH]1)COCC2)C(=O)CN1CCC(C(=O)c2ccc(F)cc2)CC1` [Example 42, (S)—N-(1-Cyclopropylethyl)-2-(4-(4-fluorobenzoyl)piperidin-1-yl)-N-((4-oxo-4,5,7,8-tetrahydro-3H-pyrano[4,3-d]pyrimidin-2-yl)methyl)acetamide], the IC50 in test [1] was 290 nM; in test [2], 45.7 ± 4.9 nM; against PARP2, > 19000 nM; in test [3], 10 ± 1 nM; against Human PARP1 it was > 19000 nM; in test [4], 42 ± 3 nM. Besides, the AC50 in test [5] stood at 589 ± 60 nM.

For the compound `O=C(c1ccc(F)cc1)C1CCN(CC(=O)N(CCF)Cc2nc3c(c(=O)[nH]2)COCC3)CC1` [Example 44, 2-[4-(4-Fluoro-benzoyl)-piperidin-1-yl]-N-(2-fluoro-ethyl)-N-(4-oxo-3,5,7,8-tetrahydro-4H-pyrano[4,3-d]pyrimidin-2-ylmethyl)-acetamide], the IC50 is 6400 nM in test [1]; 1470 ± 360 nM in test [2]; > 19000 nM against PARP2; 19 ± 1.4 nM in test [3]; > 19000 nM on Human PARP1; 72 ± 1.4 nM in test [4]. For the same compound, the concentration at half-maximal activity (AC50) in test [5] is > 10000 nM.

In the case of `O=C(c1ccc(F)cc1)C1CCN(CC(=O)N(Cc2nc3c(c(=O)[nH]2)COCC3)CC(F)F)CC1` [Example 45, N-(2,2-Difluoro-ethyl)-2-[4-(4-fluoro-benzoyl)-piperidin-1-yl]-N-(4-oxo-3,5,7,8-tetrahydro-4H-pyrano[4,3-d]pyrimidin-2-ylmethyl)-acetamide], the 50% inhibitory concentration (IC50) in test [1] is 509 ± 47 nM; in test [2] it was 16 ± 9 nM; against PARP2 it was > 19000 nM; in test [3], 10.2 ± 7.4 nM; on Human PARP1, > 19000 nM; in test [4], 37 ± 17 nM. Besides, the AC50 in test [5] is 450 ± 90 nM.

Turning to `O=C(c1ccc(F)cc1)C1CCN(CC(=O)N(Cc2nc3c(c(=O)[nH]2)COCC3)CC(F)(F)F)CC1` [Example 48, 2-[4-(4-Fluoro-benzoyl)-piperidin-1-yl]-N-(4-oxo-3,5,7,8-tetrahydro-4H-pyrano[4,3-d]pyrimidin-2-ylmethyl)-N-(2,2,2-trifluoro-ethyl)-acetamide], the IC50 in test [1] is 790 ± 180 nM; in test [2], 14 ± 6 nM; on PARP2 it was > 19000 nM; in test [3], 14 ± 1 nM; on Human PARP1, > 19000 nM; in test [4] it was 55 ± 3 nM. In addition, the AC50 in test [5] was 610 ± 240 nM.

As to `CC(c1cccs1)N(Cc1nc2c(c(=O)[nH]1)COCC2)C(=O)CN1CCC(C(=O)c2ccc(F)cc2)CC1` (centres unmarked) [Example 49, 2-[4-(4-Fluoro-benzoyl)-piperidin-1-yl]-N-(4-oxo-3,5,7,8-tetrahydro-4H-pyrano[4,3-d]pyrimidin-2-ylmethyl)-N-(1-thiophen-2-yl-ethyl)-acetamide], the IC50 in test [1] was 170 nM; in test [2], 16 ± 4 nM; at PARP2 it was > 19000 nM; in test [3], 16.5 ± 0.7 nM; against Human PARP1, > 19000 nM; in test [4], 47.5 ± 3.5 nM. Moreover, the AC50 in test [5] was found to be 86 ± 3 nM.

Turning to `COc1ccc(C(=O)C2CCN(CC(=O)N(Cc3nc4c(c(=O)[nH]3)COCC4)CC(F)F)CC2)cc1` [Example 50, N-(2,2-Difluoro-ethyl)-2-[4-(4-methoxy-benzoyl)-piperidin-1-yl]-N-(4-oxo-3,5,7,8-tetrahydro-4H-pyrano[4,3-d]pyrimidin-2-ylmethyl)-acetamide], the concentration for half-maximal inhibition (IC50) in test [1] was 45 nM; in test [2], 9.5 ± 0.5 nM; against PARP2, > 19000 nM; in test [3] it was 12 ± 1 nM; against Human PARP1, > 19000 nM; in test [4], 18 ± 7 nM. Moreover, the concentration at half-maximal activity (AC50) in test [5] amounted to 30 ± 6 nM.

For `COCCN(Cc1nc2c(c(=O)[nH]1)COCC2)C(=O)CN1CCC(C(=O)c2ccc(OC)cc2)CC1` [Example 54, 2-[4-(4-Methoxy-benzoyl)-piperidin-1-yl]-N-(2-methoxy-ethyl)-N-(4-oxo-3,5,7,8-tetrahydro-4H-pyrano[4,3-d]pyrimidin-2-ylmethyl)-acetamide], the IC50 in test [1] was 1840 nM; in test [2], 91 ± 13 nM; on PARP2, > 19000 nM; in test [3], 14 ± 3 nM; against Human PARP1, > 19000 nM; in test [4] it was 35 ± 6 nM. The AC50 in test [5] came to 1200 ± 100 nM.

For `COc1ccc(C(=O)C2CCN(CC(=O)NCc3nc4c(c(=O)[nH]3)COCC4)CC2)cc1` [Example 67, 2-(4-(4-Methoxybenzoyl)piperidin-1-yl)-N-((4-oxo-4,5,7,8-tetrahydro-3H-pyrano[4,3-d]pyrimidin-2-yl)methyl)acetamide], the IC50 in test [1] turned out to be 45 nM; in test [2], 5.3 ± 4.1 nM; against PARP2, 3640 ± 630 nM; in test [3] it was 12 ± 2 nM; on Human PARP1, 10000 ± 3200 nM; in test [4] it was 28 ± 6 nM. Besides, the AC50 in test [5] came out at 16 ± 3 nM.

In the case of `O=C(c1ccc(OC(F)(F)F)cc1)C1CCN(CC(=O)N(Cc2nc3c(c(=O)[nH]2)COCC3)CC2CC2)CC1` [Example 70, N-Cyclopropylmethyl-N-(4-oxo-3,5,7,8-tetrahydro-4H-pyrano[4,3-c]pyrimidin-2-ylmethyl)-2-[4-(4-trifluoromethoxy-benzoyl)-piperidin-1-yl]-acetamide], the IC50 in test [1] is 392 nM; in test [2] it was 8 ± 1.6 nM; on PARP2, > 19000 nM; in test [3], 8 nM; against Human PARP1 it was > 19000 nM; in test [4], 37 ± 2 nM. Also, the concentration at half-maximal activity (AC50) in test [5] came to 135 ± 7 nM.

`O=C(c1ccc(OC(F)(F)F)cc1)C1CCN(CC(=O)N(Cc2nc3c(c(=O)[nH]2)COCC3)CC(F)F)CC1` [Example 71, N-(2,2-Difluoro-ethyl)-N-(4-oxo-3,5,7,8-tetrahydro-4H-pyrano[4,3-d]pyrimidin-2-ylmethyl)-2-[4-(4-trifluoromethoxy-benzoyl)-piperidin-1-yl]-acetamide]: the IC50 in test [1] is 100 nM; in test [2], 17.5 ± 6.6 nM; against PARP2 it was 11760 ± 50 nM; in test [3], 15 ± 1 nM; against Human PARP1, > 19000 nM; in test [4] it was 43 ± 1 nM. Besides, the AC50 in test [5] is 58 ± 12 nM.

Turning to `CC#CCOc1ccc(C(=O)C2CCN(CC(=O)N(Cc3nc4c(c(=O)[nH]3)COCC4)CC3CC3)CC2)cc1` [Example 78, 2-[4-(4-But-2-ynyloxy-benzoyl)-piperidin-1-yl]-N-cyclopropylmethyl-N-(4-oxo-3,5,7,8-tetrahydro-4H-pyrano[4,3-d]pyrimidin-2-ylmethyl)-acetamide], the 50% inhibitory concentration (IC50) in test [1] was 2010 nM; in test [2], 155 ± 8 nM; against PARP2 it was > 19000 nM; in test [3] it was 15 ± 2 nM; at Human PARP1, 14700 ± 4600 nM; in test [4] it was 29 ± 2 nM. Also, the concentration at half-maximal activity (AC50) in test [5] was determined as 1920 ± 240 nM.

Source of the values: patent US9181266B2, “2-piperidin-1-yl-acetamide compounds for use as tankyrase inhibitors” (NOVARTIS AG, priority 2011, dated 2015).
